Source: ChEMBL document CHEMBL1201862, “PubChem BioAssay data set” (2004)
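The compound was tested at five concentrations on cells cultured in 96-well plates, with a 48-hour exposure period. Abbreviation: GI50, concentration required for 50% inhibition of growth.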 Calls of active or inactive are those of the source. Cut-off read from the data, not from the text of the source: active = GI50 up to about 1.1 µM and inactive = higher.

Key:
Experiment in all cases: growth of human tumour cells (NCI), 48 h
BT-549 = tested on: BT-549
DU-145 = tested on: DU-145
Hs-578T = tested on: Hs-578T
T47D = tested on: T47D

Measured: GI50

S=C1NN=C2C(=C3CCCC4C5CCCCC5N2C34)N1 (centres undefined)
inactive: BT-549 > 100 µM | DU-145 > 100 µM | Hs-578T > 100 µM | T47D 24.8 µM
